Reference: ChEMBL document CHEMBL4007472, “Identification of novel TACE inhibitors compatible with topical application” (Bioorg Med Chem Lett, 2017)
pIC50: −log10 of the molar value.

Columns and labels:
[1] = biological target: Disintegrin and metalloproteinase domain-containing protein 17 (Homo sapiens, UniProt P78536); experiment: Inhibition of recombinant TACE catalytic domain (unknown origin) using Abz-LAQAVRSSSR-Dpa as substrate preincubated for 10 mins followed by substrate addition measured after 10 mins by FRET assay; conditions: for IC50: read-out: pIC50 (converted); for pIC50: read-out: IC50
Disintegrin and metalloproteinase domain-containing protein 17 (Homo sapiens, UniProt P78536), sequence (P78536 whole entry, the tested form may be a part): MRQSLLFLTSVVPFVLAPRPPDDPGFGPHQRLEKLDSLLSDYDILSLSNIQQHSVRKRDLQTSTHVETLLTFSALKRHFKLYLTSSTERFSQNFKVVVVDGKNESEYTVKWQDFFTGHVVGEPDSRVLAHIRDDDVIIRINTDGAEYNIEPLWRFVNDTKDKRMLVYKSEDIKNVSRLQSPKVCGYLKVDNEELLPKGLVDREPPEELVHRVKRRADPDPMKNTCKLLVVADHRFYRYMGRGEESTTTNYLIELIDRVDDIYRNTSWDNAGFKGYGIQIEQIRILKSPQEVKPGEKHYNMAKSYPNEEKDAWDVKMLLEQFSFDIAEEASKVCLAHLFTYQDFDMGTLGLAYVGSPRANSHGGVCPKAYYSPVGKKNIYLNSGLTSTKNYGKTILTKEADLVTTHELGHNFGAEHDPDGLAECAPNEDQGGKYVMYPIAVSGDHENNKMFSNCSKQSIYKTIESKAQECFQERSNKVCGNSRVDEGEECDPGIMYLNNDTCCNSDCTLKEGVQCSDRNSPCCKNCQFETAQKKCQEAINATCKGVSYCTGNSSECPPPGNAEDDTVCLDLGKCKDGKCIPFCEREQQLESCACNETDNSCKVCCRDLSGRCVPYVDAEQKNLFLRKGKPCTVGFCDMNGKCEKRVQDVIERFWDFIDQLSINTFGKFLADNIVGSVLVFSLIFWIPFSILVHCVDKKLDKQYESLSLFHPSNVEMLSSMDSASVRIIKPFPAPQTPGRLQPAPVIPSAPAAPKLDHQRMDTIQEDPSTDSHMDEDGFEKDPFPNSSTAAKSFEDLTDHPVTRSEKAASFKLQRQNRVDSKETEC

[2] = biological target: Disintegrin and metalloproteinase domain-containing protein 17 (Mus musculus, UniProt Q9Z0F8); experiment: Inhibition of TACE in mouse RAW264.7 cells assessed as inhibition of LPS-stimulated TNFalpha production pretreated for 1 hr followed by LPS stimulation for 4 hrs by ELISA; format: cell-based; conditions: read-out: IC50
Disintegrin and metalloproteinase domain-containing protein 17 (Mus musculus, UniProt Q9Z0F8), sequence (Q9Z0F8 whole entry, the tested form may be a part): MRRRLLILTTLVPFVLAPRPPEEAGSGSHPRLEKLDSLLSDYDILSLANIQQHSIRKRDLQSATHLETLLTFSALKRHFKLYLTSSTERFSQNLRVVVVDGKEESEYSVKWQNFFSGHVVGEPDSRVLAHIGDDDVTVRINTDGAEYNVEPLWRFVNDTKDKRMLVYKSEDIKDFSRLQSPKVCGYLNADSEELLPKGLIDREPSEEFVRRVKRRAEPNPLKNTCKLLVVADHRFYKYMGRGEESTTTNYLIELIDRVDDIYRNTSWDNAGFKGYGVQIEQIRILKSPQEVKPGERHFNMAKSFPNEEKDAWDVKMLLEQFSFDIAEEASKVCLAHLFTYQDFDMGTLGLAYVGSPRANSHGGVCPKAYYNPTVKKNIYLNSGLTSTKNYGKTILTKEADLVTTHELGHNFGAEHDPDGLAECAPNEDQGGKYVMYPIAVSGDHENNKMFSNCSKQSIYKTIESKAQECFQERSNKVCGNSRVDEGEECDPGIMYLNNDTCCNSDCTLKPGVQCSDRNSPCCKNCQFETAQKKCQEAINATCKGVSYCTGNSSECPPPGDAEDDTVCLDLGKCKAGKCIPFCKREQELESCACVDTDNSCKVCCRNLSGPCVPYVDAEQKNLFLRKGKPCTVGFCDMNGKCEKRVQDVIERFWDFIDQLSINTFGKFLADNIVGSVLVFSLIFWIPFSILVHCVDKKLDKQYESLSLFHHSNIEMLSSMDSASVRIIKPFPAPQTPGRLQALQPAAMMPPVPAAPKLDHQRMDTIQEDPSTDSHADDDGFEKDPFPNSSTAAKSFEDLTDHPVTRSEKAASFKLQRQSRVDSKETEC

Row | IC50 [1] [nM] | pIC50 [2] | pIC50 [1] | SMILES
1 | 200 | 6.00 |  | Cc1cc(COc2ccc(S(=O)(=O)N[C@@H]3CCN(C(C)C)C[C@]3(C)C(=O)NO)cc2)c2ccccc2n1
2 | 6.31 | 6.00 |  | CC(=O)N1CC[C@@H](NS(=O)(=O)c2ccc(OCc3cc(C)nc4ccccc34)cc2)[C@@](C)(C(=O)NO)C1
3 |  | 6.57 | 9.22 | Cc1cc(COc2ccc(S(=O)(=O)N[C@@H]3CCC[C@]3(C)C(=O)NO)cc2)c2ccccc2n1
4 | 1 | 8.00 |  | Cc1cc(COc2ccc(S(=O)(=O)N(C)[C@H]3[C@@H](C(=O)NO)[C@@H]4CC[C@H]3O4)cc2)c2ccccc2n1
5 | 1.26 | 7.24 |  | Cc1cc(COc2ccc(S(=O)(=O)N[C@@H]3CN(C(=O)NC(C)(C)C)CC[C@@H]3C(=O)NO)cc2)c2ccccc2n1
6 | 1 | 7.70 |  | CC(=O)N1CCC(NS(=O)(=O)c2ccc(OCc3cc(C)nc4ccccc34)cc2)C(C(=O)NO)C1 (configuration not stated)
7 | 1.26 | 6.69 |  | CC(=O)N1CCC(C(=O)NO)C(NS(=O)(=O)c2ccc(OCc3cc(C)nc4ccccc34)cc2)C1 (configuration not stated)
8 |  | 7.72 | 9.22 | Cc1cc(COc2ccc(S(=O)(=O)N[C@@H]3CCC[C@]3(F)C(=O)NO)cc2)c2ccccc2n1
9 | 3.16 | 6.74 |  | Cc1cc(COc2ccc(S(=O)(=O)NC3CCN(CCO)CC3C(=O)NO)cc2)c2ccccc2n1 (configuration not stated)
10 | 2.51 | 6.00 |  | CC[C@]1(C(=O)NO)CCC[C@H]1NS(=O)(=O)c1ccc(OCc2cc(C)nc3ccccc23)cc1
11 | 1.26 | 6.80 |  | Cc1cc(COc2ccc(S(=O)(=O)N[C@@H]3CCN(C=O)C[C@]3(O)C(=O)NO)cc2)c2ccccc2n1
12 | 20 | 6.00 |  | C#CCN1CC[C@@H](NS(=O)(=O)c2ccc(OCc3cc(C)nc4ccccc34)cc2)[C@@](C)(C(=O)NO)C1
13 | 1 | 7.28 |  | Cc1cc(COc2ccc(S(=O)(=O)N(C)[C@@H]3[C@@H]4CC[C@@H](C4)[C@@H]3C(=O)NO)cc2)c2ccccc2n1
14 | 2.51 | 6.12 |  | Cc1cc(COc2ccc(S(=O)(=O)N[C@@H]3CCN(S(=O)(=O)C(C)C)C[C@]3(C)C(=O)NO)cc2)c2ccccc2n1
15 | 100 | 6.00 |  | Cc1cc(COc2ccc(S(=O)(=O)N[C@@H]3CCNC[C@]3(O)C(=O)NO)cc2)c2ccccc2n1
16 | 10 | 6.00 |  | CC[C@]1(C(=O)NO)CCC[C@H]1N(C)S(=O)(=O)c1ccc(OCc2cc(C)nc3ccccc23)cc1
17 | 6.31 | 5.72 |  | Cc1cc(COc2ccc(S(=O)(=O)N[C@@H]3CCOC[C@@]3(C)C(=O)NO)cc2)c2ccccc2n1
18 | 3.98 | 6.00 |  | CNC(=O)N1CC[C@@H](NS(=O)(=O)c2ccc(OCc3cc(C)nc4ccccc34)cc2)[C@@](C)(C(=O)NO)C1
19 |  | 6.00 | 9.22 | Cc1cc(COc2ccc(S(=O)(=O)N[C@@H]3CCN(C=O)C[C@]3(C)C(=O)NO)cc2)c2ccccc2n1
20 | 0.631 | 7.92 |  | Cc1cc(COc2ccc(S(=O)(=O)N[C@@H]3COC[C@@H]3C(=O)NO)cc2)c2ccccc2n1
21 |  | 7.60 | 9.22 | Cc1cc(COc2ccc(S(=O)(=O)N[C@]3(C)CCCC[C@@H]3C(=O)NO)cc2)c2ccccc2n1 (racemic)
22 |  | 7.03 | 9.22 | Cc1cc(COc2ccc(S(=O)(=O)N(C)[C@@H]3CCC[C@@H]3C(=O)NO)cc2)c2ccccc2n1 (relative stereo)
23 |  | 7.22 | 8.74 | Cc1cc(COc2ccc(S(=O)(=O)N[C@H]3CCCC[C@@H]3C(=O)NO)cc2)c2ccccc2n1 (relative stereo)
24 |  | 7.10 | 9.00 | Cc1cc(COc2ccc(S(=O)(=O)N[C@@H]3CCCC[C@@H]3C(=O)NO)cc2)c2ccccc2n1 (relative stereo)
25 |  | 7.70 | 9.22 | CC(=O)N1C[C@H](C(=O)NO)[C@H](NS(=O)(=O)c2ccc(OCc3cc(C)nc4ccccc34)cc2)C1 (relative stereo)

Row | SMILES | IC50 [1] [nM] | pIC50 [2] | pIC50 [1]
26 | Cc1cc(COc2ccc(S(=O)(=O)N(C)[C@@H]3CCC[C@]3(CO)C(=O)NO)cc2)c2ccccc2n1 |  | 6.36 | 9.22
